Laboratory results from ChEMBL document CHEMBL1641509, “A PIM₂ analogue suppresses allergic airway disease” (Bioorg Med Chem, 2011).
Activity calls are given as the source filed them.

Legend:
Assay type in all cases: functional, organism-based
Details in all cases: Lung
[1] = test system: Mus musculus; experiment: Antiinflammatory activity against ovalbumin-induced airway allergic C57BL/6 mouse model assessed as decrease of lymphocytes in bronchoalveolar lavage fluid at 20 ug/mL administered intranasally after 28 days ovalbumin challenge measured on day 32
[2] = test system: Mus musculus; experiment: Antiinflammatory activity against ovalbumin-induced airway allergic C57BL/6 mouse model assessed as reduction of recruitment of eosinophils in bronchoalveolar lavage fluid at 20 ug/mL administered intranasally after 28 days ovalbumin challenge measured on day 32
[3] = test system: Mus musculus; experiment: Antiinflammatory activity against ovalbumin-induced airway allergic C57BL/6 mouse model assessed as decrease of macrophages in bronchoalveolar lavage fluid at 20 ug/mL administered intranasally after 28 days ovalbumin challenge measured on day 32

Measured: Activity

CCCCCCCCCCCCCCCCCC(=O)OC[C@H](COP(=O)(O)OC(CO[C@H]1O[C@H](CO)[C@@H](O)[C@H](O)[C@@H]1O)CO[C@H]1O[C@H](CO)[C@@H](O)[C@H](O)[C@@H]1O)OC(=O)CCCCCCCCCCCCCCCCC
active: [1] | [2] | [3]
